Laboratory results from the NIST ThermoML archive (doi:10.1016/j.fluid.2005.11.014).
Where “and” joins values, the source holds several entries; their conditions need not be identical. Identical values can stand only once. Numbers after ± are expanded uncertainties.

settings: 313.15 K; Liquid; Closed cell (Static) method

vapor or sublimation pressure | Structure (SMILES)
24.39 ± 0.097 kPa and 24.37 ± 0.097 kPa | c1ccccc1 [benzene]
7.003 ± 0.038 kPa and 7 ± 0.038 kPa | CCCO [propan-1-ol]

Structure (SMILES) | vapor or sublimation pressure
CC(C)OC(C)C [diisopropyl ether] | 37.1 ± 0.15 kPa and 37.11 ± 0.15 kPa and 37.12 ± 0.15 kPa
